Laboratory results as given in patent publication US8940798B2, “Compounds useful for treating and/or preventing disease-associated bone loss” (Centre National de al Recherche Scientifique (CNRS), priority 2011, dated 2015).

Tests used:
DBA1 mice = experiment: Arthritis model induced by injecting bovine collagen into DBA1 mice; type: in vivo, mouse
Protocol: In inflammatory arthritis pathologies such as rheumatoid polyarthritis, the inflammatory reaction in the synovial tissue causes differentiation of osteoclasts that destroy the bone in the area of the joints (see FIG. 8). The arthritis model induced by injecting bovine collagen into DBA1 mice is classically used as a model for this pathology.
Protocol experiment 1: 2 naive DBA1 mice, 6 control mice injected with PBS and 8 test mice receiving the compound C21, 5 mg/d/kg, 5 days per week, as a retro-orbital sinus injection. The mice are distributed in 2 cages, with 1 naive mouse, 3 control mice and 4 test mice per cage. The animals, with the exception of the naive mice, receive an injection of […] of bovine collagen at day 0 and at day 20.
Protocol experiment 2: 4 naive DBA1 mice, 12 control mice injected with PBS and 12 test mice receiving the compound C21, 15 mg/d/kg, 5 days per week, as an intraperitoneal injection. The mice are distributed in 2 cages, with 2 naive mice, 6 control mice and 6 test mice per cage. The animals, with the exception of the naive mice, receive an injection of 100 μg of bovine collagen at day 0 and at day 20.
The arthritic score of each mouse is established twice per week between days 20 and D52, in order to measure swelling and deformation of the joints of the four limbs, an indication of the inflammatory response. The mice are sacrificed at D53, the legs are dissected and the structure of the bone surface of the metatarsi is imaged by micro-tomography in order to show the bone degradation at the area of the joints. The bone volume with respect to the total volume of the joint (BV/TV) decreases with the formation of resorption cavities. The measurements were performed on the joint of the central finger of the right metatarsus in experiment 1 and from the left and the right metatarsus in experiment 2. Anti-collagen IgG levels were measured in the serum of the mice in experiment 2 at day 52.

osteoclasts (OCs) = experiment: Resorption of calcium-phosphate matrices by OCs; type: cell-based, mouse; conditions: 25 μM C21 (not shown)
Protocol: BMMs were isolated from long bones of 4- to 8-week-old animals as described (16) and OCs obtained by culturing BMMs with RANKL (100 ng/ml) and M-CSF (10 ng/ml) (Peprotech) for 5 days. RAW264.7 cells were grown for 5 days with RANKL (50 ng/ml) to obtain OCs. For resorption, OCs were differentiated in multiwell chambers or on coverslips coated with calcium phosphate (Osteologic Biocoat, BD Bioscience) or in 96-well plates containing a bovine bone slice (IDS Nordic Bioscience). Mesenchymal stem cells (MSCs) were isolated from mouse bone marrow and grown as described (18).
OCs in multiwell Osteologic Biocoat were fixed at day 7 of differentiation and calciumphosphate was stained with von Kossa as described (BRAZIER et al, 2009, see above). The entire well surface was imaged using a Zeiss AxioimagerZ1 microscope. Well image was reconstituted and resorbed areas were measured using MetaMorph 7.0 software (Molecular Devices). For bone resorption assays, OCs were derived from BMMs in 96-well plates containing bovine bone slices. At day 5 of differentiation, medium was changed with fresh medium. After 2 days, CTx concentrations were measured using Crosslap (IDS Nordic Bioscience). […]

C57B1/6 mice = experiment: Ovariectomy-induced bone loss model in C57B1/6 mice; type: in vivo, mouse; conditions: 5 days per week for 28 days
Text: After menopause, a decrease in bone density due to an increase in bone resorption, leading to osteoporosis, is observed. The decrease in estrogen secretion causes i) an increase in the osteoclast level due to the decrease in secretion of OPG, a RANKL inhibitor, by the osteoblasts and ii) an increase in the lifetime of the osteoclasts due to a decrease in the production of FasL, a promoter of apoptosis, by these cells. The ovariectomy model in the mouse is classically used as a model for this physiological disturbance (see FIG. 15).
Protocol experiment 1: 8 C57B1/6 mice underwent ovariectomy (OVX) and 4 mice were operated on without ablation of the ovaries (SHAM). After this operation, 4 OVX mice received the C21 compound (test group), 5 mg/d/kg, 5 days per week for 28 days, as a retro-orbital sinus injection, and the other 4 OVX mice (control group) and the SHAM group received PBS.
Protocol experiment 2: 16 C57B1/6 mice underwent ovariectomy (OVX) and 15 mice were operated on without ablation of the ovaries (SHAM). After this operation, 8 OVX mice received the C21 compound (test group), 15 mg/d/kg solubilized in 100 μl of 5% EtOH and 4% solutol, 5 days per week for 28 days, as an intraperitoneal injection, and the other 8 OVX mice (control group) and the SHAM group received 100 μl of 5% ethanol/4% solutol vehicle solution. […]

Structure (SMILES): O=S(=O)(Nc1cc(Cl)cc(Cl)c1)c1ccccc1 [C21, N-(3,5-dichlorophenyl)benzenesulfonamide]
- Correlation between the arthritic score and BV/TV (DBA1 mice; experiment 1, 5 mg/d/kg): no correlation
- Mean arthritic score on D52 (DBA1 mice; experiment 1, 5 mg/d/kg, 5 days per week, retro-orbital sinus injection): 3.78±1.23
- Bone mass regardless of arthritic score (DBA1 mice; experiment 1, 5 mg/d/kg, BV/TV relative to arthritic score): maintenance of their bone mass
- Bone mass (BV/TV) by micro-tomography by comparison with the naive mice (DBA1 mice; experiment 1, 5 mg/d/kg, metatarsus joint, D53): did not have any BV/TV modification
- Number of mice of the 8 showing moderate bone degradation (DBA1 mice; experiment 1, 5 mg/d/kg, three-dimensional reconstruction of first joint of metatarsus): 1
- Correlation between the BV/TV and the arthritic score (DBA1 mice; experiment 2, 15 mg/d/kg intraperitoneal): no correlation
- Levels of anti-collagen IgGs compared with PBS mice (DBA1 mice; experiment 2, 15 mg/d/kg intraperitoneal, serum at day 52): non-significantly different
- Resorption of calcium-phosphate matrices (osteoclasts (OCs)): efficiently inhibits
- Bone mass (BV/TV, right distal femur, micro-tomography) of mice having undergone ovariectomy (C57B1/6 mice; experiment 1, 5 mg/d/kg, retro-orbital sinus injection): not reduced
- Bone mass of OVX animals compared with SHAM animals (C57B1/6 mice; experiment 2, 15 mg/d/kg, intraperitoneal injection): not significantly different
